In patent publication EP4768499A1, “MACROCYCLIC PEPTIDE COMPOUND HAVING CELL MEMBRANE PERMEABILITY AND METABOLIC STABILITY, AND LIBRARY CONTAINING SAME” (Chugai Seiyaku Kabushiki Kaisha, priority 2023, dated 2025):
Starred links: 1 amine or outer side, 2 acyl side, 3 side chain; linkers in the order of their positions; H or OH if unused. Positions of bridges follow the written chain, without caps; N, C: chain ends. Non-standard residues stand in square brackets, D forms with d. Residues, ends and D or L forms follow the SMILES beside them. *: point of attachment. NMeF = CN[C@@H](Cc1ccccc1)C(=O)O; NMeGABA = CN(CCCC(=O)[*:2])[*:1]; NMeI = CC[C@H](C)[C@H](NC)C(=O)O; NMeT = CN[C@H](C(=O)O)[C@@H](C)O; hPhe = N[C@@H](CCc1ccccc1)C(=O)O; NMeβAla = CN(CCC(=O)[*:2])[*:1]; NMeL = CN[C@@H](CC(C)C)C(=O)O; dNMeV = CN[C@@H](C(=O)O)C(C)C; NMeV = CN[C@H](C(=O)O)C(C)C; NMeAbu = CC[C@H](NC)C(=O)O; NMeA = CN[C@@H](C)C(=O)O; Piperidide = C1CCN(*)CC1; Abu = CC[C@H](N)C(=O)O; NBuGly = CCCCNCC(=O)O; Sar = CNCC(=O)O; tBu = CC(C)(C)*

What was measured:
[1] = Metabolic stability test: liver microsomal stability assay; format: in vitro ADME, mouse; settings: mouse liver microsomes 0.5 mg protein/mL, compound 1 µM; for microsomal CLint at 1 µM: male, pH 7.4, presence of NADPH, read-out: Mouse Hepatic Microsome CLh,int NADPH(+); for Mouse Hepatic Microsome CLh,int NADPH(-): absence of NADPH
Caco-2 cells = assay: Membrane permeability test using Caco-2 cells with preincubation; format: in vitro ADME; settings: Caco-2 cells, preincubation 20 to 24 hours; apical FaSSIF/HBSS 1% DMSO pH 6.0, basal HBSS 4% BSA pH 7.4; basal sample at 180 minutes
[2] = as above; format: in vitro ADME; settings: Caco-2; preincubation 20 to 24 hours; Apical FaSSIF/HBSS pH 6.0, Basal HBSS 4% BSA pH 7.4; 180 minutes; read-out: Caco2 Papp

Compound	microsomal CLint at 1 µM [1] [µL/min/mg]	Mouse Hepatic Microsome CLh,int NADPH(-) [1] [µL/min/mg Protein]	Caco2 Papp (10^-6 cm/sec) (Caco-2 cells)	Papp A→B [2] [×10⁻⁶ cm/s]
CCCCN1CC(=O)N(C)[C@@H](CC)C(=O)N[C@H](C(=O)N2CCCCC2)CC(=O)N(C)[C@@H](C)C(=O)N[C@@H]([C@@H](C)CC)C(=O)N(C)[C@@H](Cc2ccccc2)C(=O)N(C)[C@@H](CC(C)C)C(=O)N[C@@H](C(C)C)C(=O)N(C)CC(=O)N[C@@H](CC(C)C)C(=O)N(C)[C@@H](Cc2ccccc2)C(=O)N(C)[C@@H](C)C(=O)N[C@@H](CC(C)C)C1=O [pd099] ([NMeA]I[NMeF][NMeL]V[Sar]L[NMeF][NMeA]L[NBuGly][NMeAbu]D-Piperidide; lactam N-13)	30.3	27.8	0.41 10^-6 cm/sec	0.41
CCCCN1CC(=O)N[C@@H](COC(C)(C)C)C(=O)N(C)[C@@H](Cc2ccccc2)C(=O)N[C@@H](CC(C)C)C(=O)N(C)[C@@H](C(C)C)C(=O)N[C@H](C(=O)N2CCCCC2)CC(=O)N[C@H](C(C)C)C(=O)N(C)[C@@H](Cc2ccccc2)C(=O)N[C@@H](CC(C)C)C(=O)N(C)[C@@H](C(C)C)C(=O)N(C)[C@@H](CC(C)C)C(=O)N[C@@H]([C@@H](C)O)C(=O)N(C)[C@@H](CC(C)C)C1=O [pd100] ([dV][NMeF]L[NMeV][NMeL]T[NMeL][NBuGly]S(tBu)[NMeF]L[NMeV]D-Piperidide; lactam N-13)	39.6	28.4	<0.12 10^-6 cm/sec	< 0.12
CC[C@@H]1NC(=O)[C@H](Cc2ccccc2)N(C)C(=O)[C@H]([C@@H](C)CC)NC(=O)[C@H](CC(C)C)N(C)C(=O)[C@H](CC(C)C)NC(=O)CCN(C)C(=O)C[C@@H](C(=O)N2CCCCC2)NC(=O)[C@H](CC(C)C)N(C)C(=O)[C@H](C)N(C)C(=O)[C@H]([C@@H](C)O)NC(=O)[C@H](CC(C)C)N(C)C(=O)[C@H](C(C)C)NC(=O)[C@H](Cc2ccccc2)N(C)C1=O [pd101] ([NMeβAla]L[NMeL]I[NMeF][Abu][NMeF]V[NMeL]T[NMeA][NMeL]D-Piperidide; lactam N-13)	41.1	31.5	0.16 10^-6 cm/sec	0.16
CC[C@H](C)[C@@H]1NC(=O)[C@H](C)N(C)C(=O)[C@H]([C@@H](C)O)NC(=O)[C@H](Cc2ccccc2)N(C)C(=O)[C@H](COC(C)(C)C)NC(=O)[C@H](CC(C)C)N(C)C(=O)[C@H](CCc2ccccc2)NC(=O)[C@@H]2CCCN2C(=O)[C@H]([C@@H](C)CC)NC(=O)[C@H](CC(C)C)N(C)C(=O)CCCN(C)C(=O)C[C@@H](C(=O)N2CCCCC2)NC(=O)[C@H](CC(C)C)N(C)C1=O [pd102] ([NMeGABA][NMeL]IP[hPhe][NMeL]S(tBu)[NMeF]T[NMeA]I[NMeL]D-Piperidide; lactam N-13)	32.9	25.1	0.09 10^-6 cm/sec	0.09
CCCCN1CC(=O)N[C@@H]([C@@H](C)CC)C(=O)N(C)[C@@H](CC(C)C)C(=O)N[C@H](C(=O)N2CCCCC2)CC(=O)N(C)[C@@H](C)C(=O)N(C)[C@@H](CC(C)C)C(=O)N[C@@H]([C@@H](C)O)C(=O)N(C)[C@@H](Cc2ccccc2)C(=O)N[C@@H](CC)C(=O)N(C)[C@@H](Cc2ccccc2)C(=O)N[C@@H](CC(C)C)C(=O)N(C)[C@@H]([C@@H](C)CC)C(=O)N[C@@H](CC(C)C)C1=O [pd103] ([NMeA][NMeL]T[NMeF][Abu][NMeF]L[NMeI]L[NBuGly]I[NMeL]D-Piperidide; lactam N-13)	25.5	21.3	0.08 10^-6 cm/sec	0.08
CC[C@H](C)[C@@H]1NC(=O)[C@H](CC(C)C)N(C)C(=O)[C@H](CC(C)C)NC(=O)[C@H](C)N(C)C(=O)C[C@@H](C(=O)N2CCCCC2)NC(=O)[C@H](CC(C)C)NC(=O)[C@@H]2CCCN2C(=O)[C@H](CC(C)C)N(C)C(=O)[C@H]([C@@H](C)O)NC(=O)[C@H]([C@@H](C)CC)N(C)C(=O)[C@H](Cc2ccccc2)N(C)C(=O)[C@H](C)NC(=O)[C@H](Cc2ccccc2)N(C)C1=O [pd104] ([NMeA]L[NMeL]I[NMeF]A[NMeF][NMeI]T[NMeL]PLD-Piperidide; lactam N-13)	36	36.2	0.20 10^-6 cm/sec	0.2
CC(C)C[C@@H]1NC(=O)[C@H](C(C)C)N(C)C(=O)[C@H](Cc2ccccc2)N(C)C(=O)[C@H](CC(C)C)NC(=O)[C@H](CC(C)C)N(C)C(=O)[C@H](C)N(C)C(=O)[C@H]([C@@H](C)O)NC(=O)[C@H](CC(C)C)N(C)C(=O)[C@H](C(C)C)N(C)C(=O)[C@H](CC(C)C)NC(=O)[C@H](Cc2ccccc2)N(C)C(=O)[C@@H](C(C)C)N(C)C(=O)C[C@@H](C(=O)N2CCCCC2)NC1=O [pd108] ([dNMeV][NMeF]L[NMeV][NMeL]T[NMeA][NMeL]L[NMeF][NMeV]LD-Piperidide; lactam N-13)	39.9	35.5	0.03 10^-6 cm/sec	0.03

The next lines start with the values.

microsomal CLint at 1 µM [1] [µL/min/mg]	Mouse Hepatic Microsome CLh,int NADPH(-) [1] [µL/min/mg Protein]	Caco2 Papp (10^-6 cm/sec) (Caco-2 cells)	Papp A→B [2] [×10⁻⁶ cm/s]	Compound
28.9	22.7	0.11 10^-6 cm/sec	0.11	CC[C@@H]1NC(=O)[C@H](Cc2ccccc2)N(C)C(=O)[C@H](CC(C)C)NC(=O)CNC(=O)[C@H]([C@@H](C)O)N(C)C(=O)[C@H](CC(C)C)N(C)C(=O)[C@H]([C@@H](C)CC)NC(=O)[C@H](Cc2ccccc2)N(C)C(=O)CN(C)C(=O)C[C@@H](C(=O)N2CCCCC2)NC(=O)[C@H](C(C)C)N(C)C(=O)[C@H](CC(C)C)NC(=O)[C@H](C)N(C)C1=O [pd105] ([Sar][NMeF]I[NMeL][NMeT]GL[NMeF][Abu][NMeA]L[NMeV]D-Piperidide; lactam N-13)
32.7	37.4	0.24 10^-6 cm/sec	0.24	CC[C@@H]1NC(=O)[C@H](C(C)C)N(C)C(=O)[C@H](CC(C)C)NC(=O)[C@H](CC(C)C)N(C)C(=O)[C@H]([C@@H](C)O)NC(=O)CN(C)C(=O)[C@H]([C@@H](C)CC)NC(=O)[C@H](Cc2ccccc2)N(C)C(=O)[C@H](CC(C)C)N(C)C(=O)C[C@@H](C(=O)N2CCCCC2)NC(=O)[C@H](Cc2ccccc2)N(C)C(=O)[C@H](COC(C)(C)C)NC(=O)[C@@H]2CCCN2C1=O [pd106] ([NMeL][NMeF]I[Sar]T[NMeL]L[NMeV][Abu]PS(tBu)[NMeF]D-Piperidide; lactam N-13)
36.3	31.5	0.81 10^-6 cm/sec	0.81	CC(C)C[C@@H]1NC(=O)[C@H](CC(C)C)N(C)C(=O)[C@H](C(C)C)N(C)C(=O)[C@H](CCc2ccccc2)NC(=O)[C@H]([C@@H](C)O)N(C)C(=O)[C@@H](C(C)C)NC(=O)C[C@@H](C(=O)N2CCCCC2)NC(=O)[C@H](C(C)C)N(C)C(=O)[C@H](CC(C)C)NC(=O)[C@H](Cc2ccccc2)N(C)C(=O)[C@@H]2CCCN2C(=O)[C@H](CC(C)C)N(C)C(=O)CN(C)C1=O [pd107] ([dV][NMeT][hPhe][NMeV][NMeL]L[Sar][NMeL]P[NMeF]L[NMeV]D-Piperidide; lactam N-13)
